We go through 36 molecules from ChEMBL document CHEMBL4196008, “Structure activity relationships, multidrug resistance reversal and selectivity of heteroarylphenyl ABCG2 inhibitors” (Eur J Med Chem, 2018).

Data set [1] concerns the target T1, Broad substrate specificity ATP-binding cassette transporter ABCG2 (Homo sapiens, UniProt Q9UNQ0).
T1 sequence (Q9UNQ0 whole entry): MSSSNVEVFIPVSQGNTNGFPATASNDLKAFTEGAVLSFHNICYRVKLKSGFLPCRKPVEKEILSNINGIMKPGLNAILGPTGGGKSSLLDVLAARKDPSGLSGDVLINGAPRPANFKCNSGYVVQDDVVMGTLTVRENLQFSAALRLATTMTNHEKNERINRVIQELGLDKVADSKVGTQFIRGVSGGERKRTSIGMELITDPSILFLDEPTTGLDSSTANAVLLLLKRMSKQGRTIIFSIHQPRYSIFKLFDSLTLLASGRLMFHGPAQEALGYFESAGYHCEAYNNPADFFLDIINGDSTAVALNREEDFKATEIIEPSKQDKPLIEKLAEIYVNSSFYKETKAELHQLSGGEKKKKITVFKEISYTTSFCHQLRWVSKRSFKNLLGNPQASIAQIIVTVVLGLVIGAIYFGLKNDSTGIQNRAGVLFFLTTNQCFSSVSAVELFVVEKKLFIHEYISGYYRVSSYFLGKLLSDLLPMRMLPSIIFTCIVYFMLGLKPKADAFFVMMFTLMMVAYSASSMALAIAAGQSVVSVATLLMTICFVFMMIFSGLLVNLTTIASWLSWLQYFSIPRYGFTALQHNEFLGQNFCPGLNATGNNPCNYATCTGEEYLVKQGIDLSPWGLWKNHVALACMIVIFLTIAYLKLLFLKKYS
The data set can be described thus: Inhibition of C-terminal GFP-fused human ABCG2 expressed in MDCK2 cells up to 10 uM preincubated for 30 mins followed by Hoechst 33342 addition and measured every 60 secs for 120 mins by Hoechst 33342 accumulation assay. Type of data set: cell-based. The note with it: 2 h.

Data set [2] concerns the target T2, ABCG2 (Homo sapiens, UniProt Q9UNQ0).
T2 sequence (Q9UNQ0 whole entry): T1 sequence (Q9UNQ0 whole entry)
The data set can be described thus: Inhibition of C-terminal GFP-fused human ABCG2 expressed in MDCK2 cells up to 10 uM preincubated for 30 mins followed by Hoechst 33342 addition and measured every 60 secs for 120 mins by Hoechst 33342 accumulation assay relative to XR9577. The data set is classed as cell-based. The note with it: MDCK2 cells expressing C-terminal GFP-fused human ABCG2, probe Hoechst 33342, read-out: Imax.

Data set [3] deals with T1, Broad substrate specificity ATP-binding cassette transporter ABCG2.
Description: Inhibition of C-terminal GFP-fused human ABCG2 expressed in MDCK2 cells preincubated for 30 mins followed by Hoechst 33342 addition and measured every 60 secs for 120 mins by Hoechst 33342 accumulation assay
Data set [4] in a line: Growth inhibition of MDCK2 cells expressing C-terminal GFP-fused human ABCG2 after 72 hrs by MTT assay. Type of data set: ADME, cell-based, Canis lupus familiaris, MDCK-II. The note with it: dog. In general terms: Formazan colour is commonly taken as a measure of viable cells.
Data set [5] can be described thus: Growth inhibition of MDCK2 cells after 72 hrs by MTT assay. Type of data set: cell-based, Canis lupus familiaris, MDCK-II. As to conditions: dog; call rule not given here.
Data set [6] has as its system ABCG2. The data set can be described thus: Therapeutic index, ratio of GI50 for MDCK2 cells expressing C-terminal GFP-fused human ABCG2 to IC50 for C-terminal GFP-fused human ABCG2 expressed in MDCK2 BCRP cells. Type of data set: toxicity, cell-based. As to conditions: dog, read-out: TI.
Data set [7] in a line: Resistance factor, ratio of SN-38 GI50 for MDCK2 cells expressing C-terminal GFP-fused human ABCG2 in presence of 0.0100 uM test compound to SN-38 GI50 for MDCK2 cells in absence of test compound. The data set is classed as functional.
The nature of data set [8]: Resistance factor, ratio of SN-38 GI50 for MDCK2 cells expressing C-terminal GFP-fused human ABCG2 in presence of 0.0316 uM test compound to SN-38 GI50 for MDCK2 cells in absence of test compound. Type of data set: functional.
Data set [9] can be described thus: Resistance factor, ratio of SN-38 GI50 for MDCK2 cells expressing C-terminal GFP-fused human ABCG2 in presence of 0.100 uM test compound to SN-38 GI50 for MDCK2 cells in absence of test compound. Type of data set: functional.
The nature of data set [10]: Resistance factor, ratio of SN-38 GI50 for MDCK2 cells expressing C-terminal GFP-fused human ABCG2 in presence of 0.316 uM test compound to SN-38 GI50 for MDCK2 cells in absence of test compound. The data set is classed as functional.
Data set [11] concerns the target ATP-dependent translocase ABCB1 (Homo sapiens, UniProt P08183). The data set can be described thus: Inhibition of ABCB1 in human A2780adr cells assessed as reduction in calcein AM levels preincubated for 30 mins followed by calcein AM addition measured immediately at 60 sec time interval for 60 mins by fluorescence assay. Type of data set: cell-based.
In another data set the target is ABCB1 (Homo sapiens, UniProt P08183). The data set can be described thus: Inhibition of ABCB1 in human A2780adr cells assessed as reduction in calcein AM levels at 10 uM preincubated for 30 mins followed by calcein AM addition measured immediately at 60 sec time interval for 60 mins by fluorescence assay relative to control. As to conditions: probe calcein AM. The data set is classed as cell-based.

The nature of data set [12]: Resistance factor, ratio of SN-38 GI50 for MDCK2 cells expressing C-terminal GFP-fused human ABCG2 in presence of 1 uM test compound to SN-38 GI50 for MDCK2 cells in absence of test compound. Type of data set: functional.

Sequence of ATP-dependent translocase ABCB1 (P08183 whole entry): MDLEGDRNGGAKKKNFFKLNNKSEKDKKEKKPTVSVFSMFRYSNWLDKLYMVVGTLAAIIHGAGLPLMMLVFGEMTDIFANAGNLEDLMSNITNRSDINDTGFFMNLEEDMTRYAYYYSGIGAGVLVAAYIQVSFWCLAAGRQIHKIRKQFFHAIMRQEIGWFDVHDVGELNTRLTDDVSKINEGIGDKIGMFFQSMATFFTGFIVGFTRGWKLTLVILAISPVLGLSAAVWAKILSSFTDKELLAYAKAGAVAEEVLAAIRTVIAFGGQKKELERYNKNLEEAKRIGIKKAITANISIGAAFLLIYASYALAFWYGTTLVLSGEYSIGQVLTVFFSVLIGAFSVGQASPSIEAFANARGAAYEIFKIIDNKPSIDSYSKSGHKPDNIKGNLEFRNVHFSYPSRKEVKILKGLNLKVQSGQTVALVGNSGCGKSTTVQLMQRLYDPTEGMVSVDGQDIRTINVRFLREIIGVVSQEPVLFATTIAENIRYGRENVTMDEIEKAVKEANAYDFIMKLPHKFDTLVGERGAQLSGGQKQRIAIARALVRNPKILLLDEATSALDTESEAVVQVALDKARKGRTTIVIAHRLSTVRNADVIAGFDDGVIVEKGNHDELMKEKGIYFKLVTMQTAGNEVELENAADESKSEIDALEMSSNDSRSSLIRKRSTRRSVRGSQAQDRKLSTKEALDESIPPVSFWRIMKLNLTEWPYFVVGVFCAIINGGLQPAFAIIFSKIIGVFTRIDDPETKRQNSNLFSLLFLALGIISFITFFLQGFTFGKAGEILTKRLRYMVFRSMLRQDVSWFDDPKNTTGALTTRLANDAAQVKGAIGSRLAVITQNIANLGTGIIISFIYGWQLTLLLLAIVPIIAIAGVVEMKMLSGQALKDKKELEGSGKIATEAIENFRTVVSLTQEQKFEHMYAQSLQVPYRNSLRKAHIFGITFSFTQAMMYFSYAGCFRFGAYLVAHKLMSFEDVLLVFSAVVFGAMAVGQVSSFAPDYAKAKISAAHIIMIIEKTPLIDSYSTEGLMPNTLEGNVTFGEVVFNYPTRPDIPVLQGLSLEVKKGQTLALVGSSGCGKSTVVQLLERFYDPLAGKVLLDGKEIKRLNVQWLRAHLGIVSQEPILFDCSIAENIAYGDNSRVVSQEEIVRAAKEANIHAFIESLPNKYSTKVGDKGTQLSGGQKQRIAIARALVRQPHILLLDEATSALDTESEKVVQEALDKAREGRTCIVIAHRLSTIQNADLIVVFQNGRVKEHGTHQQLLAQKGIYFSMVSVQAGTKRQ
Sequence of ABCB1 (P08183 whole entry): as above

For `COc1ccc(C(=O)Nc2ccccc2-c2nn[nH]n2)cc1`, in [1], the “inhibition (INH)” value is given as “Not Active”.
As to `O=C(Nc1ccccc1-c1nnn(-c2ccccc2)n1)c1ccncc1`, the Emax at 2 h on ABCG2 [2] was 97%. Moreover, the half-inhibitory concentration (IC50) in data set [3] came out at 0.287 µM.
With `COc1ccc(-n2nnc(-c3ccccc3NC(=O)c3cccc4ccccc34)n2)cc1`, the Emax at 2 h at ABCG2 [2] was 78%. Also, the half-maximal inhibitory concentration (IC50) in data set [3] amounted to 0.267 µM.
On the same counts, the results for `O=C(Nc1ccccc1-c1nnn(-c2ccccc2)n1)c1cccc2ccccc12` are 85% and 0.43 µM.
On the same counts, the results for `COc1ccc(-n2nnc(-c3ccccc3NC(=O)c3cccs3)n2)cc1` are 90% and 0.351 µM.
Regarding `COc1ccc(-n2nnc(-c3ccccc3NC(=O)c3ccc(C(F)(F)F)cc3)n2)cc1`, in data set [1], the “inhibition (INH)” value is “Not Active”.
For the molecule `COc1ccc(-n2nnc(-c3ccccc3-n3nnc(-c4ccc(C(F)(F)F)cc4)n3)n2)cc1`, the Emax at 2 h on ABCG2 [2] was 100%. The molecule also gave an IC50 in data set [3] of 15.8 µM.
On the same counts, the results for `COc1ccc(-n2nnc(-c3cccc(NC(=O)c4ccc(C(F)(F)F)cc4)c3)n2)cc1` are 100% and 18.5 µM.
On to `COc1ccc(-n2nnc(-c3ccccc3NC(=O)c3cnc4ccccc4c3)n2)cc1`, for which the Emax at 2 h on ABCG2 [2] was found to be 82%. The 50% inhibitory concentration (IC50) in data set [3] stood at 0.228 µM.
For `O=C(Nc1ccccc1-c1nnn(-c2ccccc2)n1)C1CCCCC1`, the Emax at 2 h on ABCG2 [2] turned out to be 97%. In addition, the IC50 in data set [3] came to 0.287 µM.
On the same counts, the results for `O=C(Nc1ccccc1-c1nnn(-c2ccccc2)n1)c1ccc2c(c1)OCO2` are 123% and 0.259 µM.
On the same counts, the results for `COc1ccc(C(=O)Nc2ccccc2-n2cc(-c3ccc(OC)cc3)nn2)cc1` are 100% and 2.36 µM.
As to `O=C(Nc1ccccc1-c1nnn(-c2ccccc2)n1)c1cccs1`, the Emax at 2 h on ABCG2 [2] stood at 106%. Also, the concentration for half-maximal inhibition (IC50) in data set [3] came to 0.27 µM.
On the same counts, the results for `COc1ccc(-n2nnc(-c3ccccc3NS(=O)(=O)c3ccc(OC)cc3)n2)cc1` are 100% and 7.67 µM.
For `CC(=O)Nc1ccccc1-c1nnn(-c2ccccc2)n1`, in that order: 100% and 6.91 µM.
Regarding `COc1ccc(C(=O)Nc2ccccc2-c2nnc(-c3ccc(OC)cc3)o2)cc1`, at ABCG2 [2], the Emax at 2 h amounted to 124%. Further, the GI50 at 72 h in data set [4] was found to be 404 µM; in [5], 487 µM. Moreover, the selectivity ratio with ABCG2 [6] stood at 836. Besides, the RatioGI50 is 6.61 in [7], 5.07 in data set [8], 2.17 in data set [9] and 1.29 in [10]. This molecule yielded an IC50 in [3] of 0.438 µM.
Turning to `c1ccc(-c2ccccc2-c2nnn(-c3ccccc3)n2)cc1`, the Emax at 2 h on ABCG2 [2] stood at 100%. Besides, the half-inhibitory concentration (IC50) in data set [3] came to 8.34 µM.
As to `COc1ccc(-c2nnc(-c3ccccc3NC(=O)c3ccc(C(F)(F)F)cc3)o2)cc1`, the Emax at 2 h on ABCG2 [2] was 47%. The molecule further returned an IC50 in [3] of 0.09 µM.
For `COc1ccc(-n2nnc(-c3ccccc3NC(=O)c3ccc(C(F)(F)F)cc3)n2)cn1`, in that order: 95% and 0.13 µM.
In the case of `O=C(Nc1ccccc1-c1nnn(-c2ccccc2)n1)c1cccnc1`, on ABCG2 [2], the Emax at 2 h stood at 81%. For the same molecule, the IC50 in [3] was 0.445 µM.
On the same counts, the results for `COc1ccc(-n2nnc(-c3ccccc3NC(=O)C3CCCCC3)n2)cc1` are 95% and 0.565 µM.
For `COc1ccc(-n2nnc(-c3ccc(NC(=O)c4ccc(C(F)(F)F)cc4)cc3)n2)cc1`, in that order: 100% and 39.8 µM.
As to `COc1ccc(C(=O)Nc2ccccc2-c2nnn(-c3ccc(OC)cc3)n2)cc1`, the “inhibition (INH)” value in data set [1] is “Not Active”.
For `O=C(Nc1ccccc1-c1nnc(-c2ccccc2)o1)c1ccccc1`, the Emax at 2 h on ABCG2 [2] amounted to 101%. Moreover, the GI50 at 72 h was 73.7 µM in data set [4] and 60.8 µM in data set [5]. Besides, the selectivity ratio with ABCG2 [6] is 658. Moreover, the RatioGI50 in data set [7] stood at 5.51; in [8], 2.61; in data set [9], 1.52; in [10], 1.49. The molecule further returned an IC50 in data set [3] of 0.112 µM.
Take `COc1ccc(-n2nnc(-c3ccccc3NC(=O)c3ccccc3)n2)cn1`: the Emax at 2 h at ABCG2 [2] was 120%. This molecule also returned an IC50 in data set [3] of 0.102 µM.
For `COc1ccc(-n2nnc(-c3cc(OC)ccc3NC(=O)c3ccc(C(F)(F)F)cc3)n2)cc1`, in that order: 96% and 0.0774 µM.
Turning to `O=C(Nc1ccccc1-c1nnn(-c2ccccc2)n1)c1ccc2c(c1)OCCO2`, the Emax at 2 h on ABCG2 [2] was found to be 106%. Besides, the IC50 in [3] was determined as 0.19 µM.
As to `O=C(Nc1ccccc1-c1nnn(-c2ccccc2)n1)C12CC3CC(CC(C3)C1)C2`, the Emax at 2 h on ABCG2 [2] is 99%. For the same molecule, the results for the half-maximal inhibitory concentration (IC50) in data set [11] and in data set [3] were 11 µM and 1.06 µM, respectively. The inhibition at 1 h, 10 µM on ABCB1 was 51%.
As for `COc1ccc(C(=O)Nc2ccccc2-c2nnn(-c3ccc(OC)nc3)n2)cc1`, the Emax at 2 h on ABCG2 [2] was 103%. For the same molecule, the results for the half-maximal inhibitory concentration (IC50) in data set [11] and in [3] were 8.55 µM and 0.0616 µM, respectively. Moreover, the figures for the GI50 at 72 h in [4] and in data set [5] were 78 µM and 80.1 µM, respectively. Also, in the data set on ABCG2 [6], the selectivity ratio came to 1270. Further, the RatioGI50 worked out at 4.49 in data set [7], 2.64 in data set [8], 1.1 in [9] and 1.04 in data set [10].
`O=C(Nc1ccccc1-c1nnn(-c2ccccc2)n1)c1cnc2ccccc2c1`: the Emax at 2 h at ABCG2 [2] was found to be 51%. This molecule also displayed an IC50 in data set [3] of 0.176 µM.
For `COc1ccc(-c2cn(-c3ccccc3NC(=O)c3ccc(C(F)(F)F)cc3)nn2)cc1`, in that order: 118% and 0.766 µM.
With `O=C(Nc1ccccc1-n1cc(-c2ccccc2)nn1)c1ccccc1`, the Emax at 2 h on ABCG2 [2] was 100%. Moreover, the concentration for half-maximal inhibition (IC50) was 21.2 µM in data set [11] and 15.3 µM in data set [3]. For the same molecule, the GI50 at 72 h in data set [4] was 506 µM; in [5], 452 µM. Also, in the data set on ABCG2 [6], the selectivity ratio was 33.1. The RatioGI50 came out at 5.37 in data set [8], 3.59 in data set [9], 2.38 in data set [10] and 1.63 in data set [12].
Regarding `COc1ccc(-n2nnc(-c3ccccc3NC(C)=O)n2)cc1`, the Emax at 2 h at ABCG2 [2] worked out at 100%. This molecule showed an IC50 in data set [3] of 3.23 µM.
On the same counts, the results for `COc1ccc(-n2nnc(-c3cc(OC)ccc3NC(=O)c3ccc([N+](=O)[O-])cc3)n2)cc1` are 50% and 0.129 µM.
For `O=C(Nc1ccccc1-c1nn[nH]n1)c1ccccc1`, in data set [1], the “inhibition (INH)” value is reported as “Not Active”.
With `O=C(Nc1ccccc1-c1nnn(-c2ccccc2)n1)c1ccccn1`, the Emax at 2 h on ABCG2 [2] amounted to 99%. For the same molecule, the results for the IC50 in data set [11] and in [3] were 5.91 µM and 0.733 µM, respectively.

As usually defined, the IC50 is the concentration needed to halve the response being measured. Broadly, the GI50 is the concentration that inhibits growth by half. A higher GI50 goes with less potent growth inhibition. A word on the inhibition: it is the relative decrease from the control value, in per cent.
